Source: patent US8785499B2 (priority 2009, dated 2014)

Legend:
ecNadD = ecNadD (Escherichia coli (strain K12), UniProt P0A752); assay: biochemical; format: biochemical
baNadD = baNadD (Bacillus anthracis, UniProt C3L5T6); assay: biochemical; format: biochemical
baNadD, sequence (C3L5T6 whole entry, looked up): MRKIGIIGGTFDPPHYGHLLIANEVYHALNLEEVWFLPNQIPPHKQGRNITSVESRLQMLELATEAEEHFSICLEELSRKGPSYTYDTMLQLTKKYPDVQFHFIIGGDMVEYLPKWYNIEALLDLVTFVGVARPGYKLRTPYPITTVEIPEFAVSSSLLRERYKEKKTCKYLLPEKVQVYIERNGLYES

SMILES | […]. coli (ecNadD) | […]. anthracis (baNadD)
CCCCN(C(C)=O)c1ccc(C(=O)O)cc1 [compound 114] | 8% | 0%
O=C(O)CN(c1ccccc1)S(=O)(=O)c1ccccc1[N+](=O)[O-] [compound 115] | 8% | 0%
O=C(O)c1nonc1NCn1cnnn1 [compound 116] | 8% | 5%
O=C(O)Cn1cc(Cl)c([N+](=O)[O-])n1 [compound 117] | 8% | 14%
NS(=O)(=O)c1ccc(/N=C/c2ccc(Cl)cc2Cl)cc1 [compound 118] | 8% | 0%
O=C(O)c1cc(/N=C/c2ccc3c(c2)OCO3)ccc1O [compound 119] | 8% | 0%
Cc1cccc(C(=O)NNC(=O)/C=C\C(=O)O)c1 [compound 120] | 8% | 0%
CCSc1ccccc1C(=O)Nc1ccc(S(N)(=O)=O)cc1 [compound 121] | 8% | 0%
Cc1ccc(C(=O)Nc2nc3ccc(Br)cc3s2)o1 [compound 123] | 7% | 0%
O=C(NCc1ccccc1)Nc1ccc2nsnc2c1 [compound 124] | 7% | 0%
CC(=O)Nc1ccc(OCC(=O)Nc2ccccc2)cc1 [compound 125] | 7% | 0%
CCOc1ccc(S(=O)(=O)Nc2cccnc2)cc1 [compound 126] | 7% | 22%
CC(=O)c1ccc(NC(=O)CC(NCc2cccnc2)C(=O)O)cc1 (stereo not drawn) [compound 127] | 7% | 59%
CC(=O)Nc1ccc(NC(=O)CSc2nccc(O)n2)cc1 [compound 128] | 7% | 0%
O=C(CSc1nnc[nH]1)Nc1ccc(I)cc1 [compound 129] | 7% | 0%
O=C(O)c1ccccc1S(=O)(=O)c1ccccc1C(=O)O [compound 130] | 7% | 28%
O=C(O)/C=C\C(=O)Nc1ccc(Br)c(Cl)c1 [compound 131] | 7% | 0%
O=C(O)c1ccccc1NC1=NS(=O)(=O)c2ccccc21 [compound 132] | 6% | 25%
O=C(O)c1cc(C(=O)O)cc(N2C(=O)c3ccc(C(=O)O)cc3C2=O)c1 [compound 134] | 6% | 0%
O=c1[nH]c2ccc(/N=C/c3cc(Cl)ccc3O)cc2[nH]1 [compound 135] | 6% | 10%
NC(=S)NNC(=O)c1ccccc1C(=O)O [compound 136] | 6% | 64%
O=C(Nc1ncccc1Cl)c1ccc(Br)cc1 [compound 137] | 6% | 7%
COc1ccc(-c2csc(N)n2)cc1[N+](=O)[O-] [compound 138] | 6% | 54%
COc1ccc(S(=O)(=O)Nc2ccc(C(N)=O)cc2)cc1Cl [compound 139] | 6% | 0%
NS(=O)(=O)c1ccc2nc(NC(=O)CCc3ccccc3)sc2c1 [compound 140] | 6% | 0%
O=C(O)c1ccc(-n2cccn2)cc1 [compound 141] | 6% | 17%
O=S(=O)(NCCCc1ccccc1)c1cccc2nsnc12 [compound 142] | 6% | 0%
c1ccc2[nH]c(SCc3cn4ccsc4n3)nc2c1 [compound 143] | 6% | 2%
CC1=C(C)CC(C(=O)Nc2ccc(I)cc2)C(C(=O)O)C1 (stereo not drawn) [compound 144] | 6% | 65%
O=C(Cn1cnc2ccccc2c1=O)Nc1nccs1 [compound 145] | 6% | 0%
